≈ marks a conversion by molar mass, not a printed value.
Columns and labels:
[1] = tested on: Candida albicans; test: Antifungal activity against Candida albicans ATCC 90028 at 100 ug/disk after 48 hrs by agar disk diffusion method; type: functional; conditions: ATCC 90028, 48 h, read-out: DIZ
[2] = tested on: Candida albicans; test: Antifungal activity against Candida albicans ATCC 90028 after 18 to 24 hrs by agar dilution method; type: functional
[3] = tested on: Staphylococcus aureus; test: Antibacterial activity against Staphylococcus aureus ATCC 11632 at 100 ug/disk after 24 hrs by agar disk diffusion method; type: functional; conditions: ATCC 11632, 24 h, read-out: DIZ
[4] = tested on: Staphylococcus aureus; test: Antibacterial activity against Staphylococcus aureus ATCC 11632 after 18 to 24 hrs by agar dilution method; type: functional
[5] = tested on: Escherichia coli; test: Antibacterial activity against Escherichia coli ATCC 25922 at 100 ug/disk after 24 hrs by agar disk diffusion method; type: functional; conditions: ATCC 25922, 24 h, read-out: DIZ
[6] = tested on: Escherichia coli; test: Antibacterial activity against Escherichia coli ATCC 25922 after 18 to 24 hrs by agar dilution method; type: functional
[7] = tested on: Staphylococcus aureus; test: microbe, parasite or virus in culture; conditions: ATCC 11632, 24 h, read-out: DIZ
Description: Antibacterial activity against Staphylococcus aureus ATCC 11632 at 10 ug/disk after 24 hrs by agar disk diffusion method

[8] = tested on: Escherichia coli; test: microbe, parasite or virus in culture; conditions: ATCC 25922, 24 h, read-out: DIZ
Description: Antibacterial activity against Escherichia coli ATCC 25922 at 10 ug/disk after 24 hrs by agar disk diffusion method

[9] = tested on: NIH3T3; test: Cytotoxicity against mouse NIH/3T3 cells after 48 hrs by MTT assay; type: cell-based; conditions: NIH3T3, 48 h
[10] = tested on: Candida albicans; test: Antifungal activity against Candida albicans ATCC 90028 at 10 ug/disk after 48 hrs by agar disk diffusion method; type: functional; conditions: ATCC 90028, 48 h, read-out: DIZ

Row | SMILES | zone of inhibition at 100 µg/disc [1] | MIC [2] | zone of inhibition at 100 µg/disc [3] | MIC [4] | zone of inhibition at 100 µg/disc [5] | MIC [6] | zone of inhibition at 10 µg/disc [7] | zone of inhibition at 10 µg/disc [8] | IC50 [9] | zone of inhibition at 10 µg/disc [10]
1 | COC(=O)CSc1c(-c2ccc([N+](=O)[O-])cc2)nc2ccccc2c1-c1ccccc1 | 20 mm | 12.5 µg/mL (≈ 29 µM) | 16 mm | 12.5 µg/mL (≈ 29 µM) | 18 mm | 6.25 µg/mL (≈ 14.5 µM) |  |  |  | 
2 | O=c1oc2ccccc2cc1Sc1c(-c2ccc([N+](=O)[O-])cc2)nc2ccccc2c1-c1ccccc1 | 18 mm | 12.5 µg/mL (≈ 24.9 µM) | 15 mm | 25 µg/mL (≈ 49.7 µM) | 15 mm | 12.5 µg/mL (≈ 24.9 µM) |  |  |  | 
3 | O=C(O)c1cn(C2CC2)c2cc(N3CCNCC3)c(F)cc2c1=O [CIPROFLOXACIN] |  |  |  |  |  |  | 25 mm | 28 mm |  | 
4 | O=c1oc2ccccc2cc1Sc1c(-c2ccccc2)nc2ccccc2c1-c1ccccc1 | 10 mm | 25 µg/mL (≈ 54.6 µM) | 12 mm | 25 µg/mL (≈ 54.6 µM) | 13 mm | 25 µg/mL (≈ 54.6 µM) |  |  |  | 
5 | Cc1ccc(-c2nc3ccccc3c(-c3ccccc3)c2Sc2cc3ccccc3oc2=O)cc1 | 12 mm | 25 µg/mL (≈ 53 µM) | 10 mm | 25 µg/mL (≈ 53 µM) | 13 mm | 25 µg/mL (≈ 53 µM) |  |  |  | 
6 | O=c1oc2ccccc2cc1Sc1c(-c2ccc(Cl)cc2)nc2ccccc2c1-c1ccccc1 | 15 mm | 25 µg/mL (≈ 50.8 µM) | 12 mm | 25 µg/mL (≈ 50.8 µM) | 12 mm | 25 µg/mL (≈ 50.8 µM) |  |  |  | 
7 | COc1ccc(-c2nc3ccccc3c(-c3ccccc3)c2Sc2cc3ccccc3oc2=O)cc1 | 12 mm | 25 µg/mL (≈ 51.3 µM) | 16 mm | 25 µg/mL (≈ 51.3 µM) | 12 mm | 25 µg/mL (≈ 51.3 µM) |  |  |  | 
8 | COC(=O)CSc1c(-c2cccc(Br)c2)nc2ccccc2c1-c1ccccc1 | 13 mm | 12.5 µg/mL (≈ 26.9 µM) | 18 mm | 12.5 µg/mL (≈ 26.9 µM) | 15 mm | 12.5 µg/mL (≈ 26.9 µM) |  |  | 456 µM | 
9 | COC(=O)CSc1c(-c2ccc3ccccc3c2)nc2ccccc2c1-c1ccccc1 | 10 mm | 25 µg/mL (≈ 57.4 µM) | 10 mm | 50 µg/mL (≈ 115 µM) | 10 mm | 50 µg/mL (≈ 115 µM) |  |  |  | 
10 | O=c1oc2ccccc2cc1Sc1c(-c2ccc(-c3ccccc3)cc2)nc2ccccc2c1-c1ccccc1 | 10 mm | 50 µg/mL (≈ 93.7 µM) | 10 mm | 25 µg/mL (≈ 46.8 µM) | < 10 mm | 50 µg/mL (≈ 93.7 µM) |  |  |  | 
11 | COC(=O)CSc1c(-c2ccc(OC)cc2)nc2ccccc2c1-c1ccccc1 | 12 mm | 25 µg/mL (≈ 60.2 µM) | 15 mm | 12.5 µg/mL (≈ 30.1 µM) | 15 mm | 12.5 µg/mL (≈ 30.1 µM) |  |  |  | 
12 | COC(=O)CSc1c(-c2cccc(Cl)c2)nc2ccccc2c1-c1ccccc1 | 15 mm | 12.5 µg/mL (≈ 29.8 µM) | 18 mm | 12.5 µg/mL (≈ 29.8 µM) | 18 mm | 12.5 µg/mL (≈ 29.8 µM) |  |  |  | 
13 | O=c1oc2ccccc2cc1Sc1c(-c2ccc3ccccc3c2)nc2ccccc2c1-c1ccccc1 | < 10 mm | 50 µg/mL (≈ 98.5 µM) | < 10 mm | 50 µg/mL (≈ 98.5 µM) | < 10 mm | 50 µg/mL (≈ 98.5 µM) |  |  |  | 
14 | Clc1ccccc1C(c1ccccc1)(c1ccccc1)n1ccnc1 [CLOTRIMAZOLE] |  | 6.25 µg/mL (≈ 18.1 µM) |  |  |  |  |  |  |  | 28 mm
15 | COC(=O)CSc1c(-c2ccc(Cl)cc2)nc2ccccc2c1-c1ccccc1 | 15 mm | 25 µg/mL (≈ 59.5 µM) | 13 mm | 25 µg/mL (≈ 59.5 µM) | 12 mm | 12.5 µg/mL (≈ 29.8 µM) |  |  |  | 
16 | COC(=O)CSc1c(-c2ccc(-c3ccccc3)cc2)nc2ccccc2c1-c1ccccc1 | 10 mm | 50 µg/mL (≈ 108 µM) | 12 mm | 25 µg/mL (≈ 54.2 µM) | 10 mm | 25 µg/mL (≈ 54.2 µM) |  |  |  | 
17 | COC(=O)CSc1c(-c2ccc(Br)cc2)nc2ccccc2c1-c1ccccc1 | 18 mm | 12.5 µg/mL (≈ 26.9 µM) | 18 mm | 12.5 µg/mL (≈ 26.9 µM) | 20 mm | 6.25 µg/mL (≈ 13.5 µM) |  |  |  | 
18 | COC(=O)CSc1c(-c2ccc(C)cc2)nc2ccccc2c1-c1ccccc1 | 13 mm | 12.5 µg/mL (≈ 31.3 µM) | 16 mm | 12.5 µg/mL (≈ 31.3 µM) | 11 mm | 25 µg/mL (≈ 62.6 µM) |  |  |  | 
19 | COC(=O)CSc1c(-c2ccccc2)nc2ccccc2c1-c1ccccc1 | 10 mm | 25 µg/mL (≈ 64.9 µM) | 15 mm | 25 µg/mL (≈ 64.9 µM) | 15 mm | 25 µg/mL (≈ 64.9 µM) |  |  |  | 
20 | O=c1oc2ccccc2cc1Sc1c(-c2ccc(Br)cc2)nc2ccccc2c1-c1ccccc1 | 20 mm | 12.5 µg/mL (≈ 23.3 µM) | 18 mm | 12.5 µg/mL (≈ 23.3 µM) | 18 mm | 12.5 µg/mL (≈ 23.3 µM) |  |  |  | 
21 | COC(=O)CSc1c(-c2cccc(OC)c2)nc2ccccc2c1-c1ccccc1 | 15 mm | 25 µg/mL (≈ 60.2 µM) | 15 mm | 25 µg/mL (≈ 60.2 µM) | 15 mm | 12.5 µg/mL (≈ 30.1 µM) |  |  |  | 

Source: ChEMBL document CHEMBL2429720, “Synthesis, antimicrobial, and cytotoxicity studies of novel sulfur-linked quinolinecoumarin bisheterocycles” (Med Chem Res, 2013)
